Experimental data reported in PMC5752595 (Molecular cancer therapeutics, 2017).

Tests used:
Experiment in all cases: in vitro kinase assay
OSR1 = OSR1 (Homo sapiens, UniProt O95747); assay type: biochemical
RSK1 = RSK1 (Homo sapiens, UniProt Q15418); assay type: biochemical
CAMKK2 = CAMKK2 (Homo sapiens, UniProt Q96RR4); assay type: biochemical
FER = FER (Homo sapiens, UniProt P16591); assay type: biochemical
RSK2 = RSK2 (Homo sapiens, UniProt P51812); assay type: biochemical
AMPK = assay type: biochemical, Homo sapiens; conditions: read-out: Ceritinib

Chain of CAMKK2 (Q96RR4 2-588): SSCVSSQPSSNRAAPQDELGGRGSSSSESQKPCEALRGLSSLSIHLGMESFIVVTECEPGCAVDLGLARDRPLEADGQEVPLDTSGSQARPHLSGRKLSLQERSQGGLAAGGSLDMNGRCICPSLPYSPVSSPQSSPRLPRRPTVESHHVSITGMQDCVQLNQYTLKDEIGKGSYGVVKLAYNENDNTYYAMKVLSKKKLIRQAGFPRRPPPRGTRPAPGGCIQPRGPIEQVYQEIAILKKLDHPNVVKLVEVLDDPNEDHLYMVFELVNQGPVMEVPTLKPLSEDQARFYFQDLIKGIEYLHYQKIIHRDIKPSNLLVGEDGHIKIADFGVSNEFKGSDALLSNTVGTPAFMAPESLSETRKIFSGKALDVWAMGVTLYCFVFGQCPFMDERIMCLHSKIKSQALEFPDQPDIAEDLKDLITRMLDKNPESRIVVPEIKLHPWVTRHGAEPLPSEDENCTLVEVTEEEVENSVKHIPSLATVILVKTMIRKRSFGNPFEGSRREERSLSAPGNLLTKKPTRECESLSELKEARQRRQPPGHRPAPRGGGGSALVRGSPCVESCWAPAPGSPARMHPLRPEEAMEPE
Chain of RSK1 (Q15418 whole entry): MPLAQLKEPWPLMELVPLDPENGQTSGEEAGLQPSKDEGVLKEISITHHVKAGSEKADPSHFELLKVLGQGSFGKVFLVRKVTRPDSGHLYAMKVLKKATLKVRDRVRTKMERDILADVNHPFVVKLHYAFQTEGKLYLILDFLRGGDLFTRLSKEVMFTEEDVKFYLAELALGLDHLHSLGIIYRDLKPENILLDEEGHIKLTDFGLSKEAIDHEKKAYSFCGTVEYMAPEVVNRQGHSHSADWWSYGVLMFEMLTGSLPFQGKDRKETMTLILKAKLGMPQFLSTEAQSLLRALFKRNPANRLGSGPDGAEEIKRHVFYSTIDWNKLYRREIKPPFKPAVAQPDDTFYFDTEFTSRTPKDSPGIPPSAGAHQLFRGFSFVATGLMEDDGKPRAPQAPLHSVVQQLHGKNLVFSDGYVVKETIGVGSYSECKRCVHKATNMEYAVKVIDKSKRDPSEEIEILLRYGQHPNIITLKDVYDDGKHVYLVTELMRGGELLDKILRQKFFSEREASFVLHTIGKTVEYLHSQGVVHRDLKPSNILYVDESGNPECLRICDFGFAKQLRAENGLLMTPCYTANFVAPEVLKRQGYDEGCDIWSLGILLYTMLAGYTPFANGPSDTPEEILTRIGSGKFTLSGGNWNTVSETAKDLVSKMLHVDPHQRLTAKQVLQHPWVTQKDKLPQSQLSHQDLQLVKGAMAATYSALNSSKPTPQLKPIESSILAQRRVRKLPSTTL
Chain of RSK2 (P51812 whole entry): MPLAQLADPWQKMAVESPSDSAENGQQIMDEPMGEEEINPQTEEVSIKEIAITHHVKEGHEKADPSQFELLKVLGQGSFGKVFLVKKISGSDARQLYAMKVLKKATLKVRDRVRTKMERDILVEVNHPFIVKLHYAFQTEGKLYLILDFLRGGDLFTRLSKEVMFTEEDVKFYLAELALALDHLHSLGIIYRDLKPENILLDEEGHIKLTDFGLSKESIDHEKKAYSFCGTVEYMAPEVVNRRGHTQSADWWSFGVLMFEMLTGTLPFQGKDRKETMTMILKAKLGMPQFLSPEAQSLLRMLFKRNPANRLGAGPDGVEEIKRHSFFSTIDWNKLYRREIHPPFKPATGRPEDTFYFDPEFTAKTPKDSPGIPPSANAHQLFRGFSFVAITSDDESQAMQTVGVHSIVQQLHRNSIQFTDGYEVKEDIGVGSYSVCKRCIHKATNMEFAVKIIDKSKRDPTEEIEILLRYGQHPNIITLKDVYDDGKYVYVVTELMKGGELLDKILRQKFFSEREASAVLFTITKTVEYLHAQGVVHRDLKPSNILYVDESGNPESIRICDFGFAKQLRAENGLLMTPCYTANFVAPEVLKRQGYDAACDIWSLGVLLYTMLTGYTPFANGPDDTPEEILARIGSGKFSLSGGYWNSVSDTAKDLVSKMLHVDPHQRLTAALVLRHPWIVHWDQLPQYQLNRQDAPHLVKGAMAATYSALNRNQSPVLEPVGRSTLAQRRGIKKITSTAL
Chain of FER (P16591 whole entry): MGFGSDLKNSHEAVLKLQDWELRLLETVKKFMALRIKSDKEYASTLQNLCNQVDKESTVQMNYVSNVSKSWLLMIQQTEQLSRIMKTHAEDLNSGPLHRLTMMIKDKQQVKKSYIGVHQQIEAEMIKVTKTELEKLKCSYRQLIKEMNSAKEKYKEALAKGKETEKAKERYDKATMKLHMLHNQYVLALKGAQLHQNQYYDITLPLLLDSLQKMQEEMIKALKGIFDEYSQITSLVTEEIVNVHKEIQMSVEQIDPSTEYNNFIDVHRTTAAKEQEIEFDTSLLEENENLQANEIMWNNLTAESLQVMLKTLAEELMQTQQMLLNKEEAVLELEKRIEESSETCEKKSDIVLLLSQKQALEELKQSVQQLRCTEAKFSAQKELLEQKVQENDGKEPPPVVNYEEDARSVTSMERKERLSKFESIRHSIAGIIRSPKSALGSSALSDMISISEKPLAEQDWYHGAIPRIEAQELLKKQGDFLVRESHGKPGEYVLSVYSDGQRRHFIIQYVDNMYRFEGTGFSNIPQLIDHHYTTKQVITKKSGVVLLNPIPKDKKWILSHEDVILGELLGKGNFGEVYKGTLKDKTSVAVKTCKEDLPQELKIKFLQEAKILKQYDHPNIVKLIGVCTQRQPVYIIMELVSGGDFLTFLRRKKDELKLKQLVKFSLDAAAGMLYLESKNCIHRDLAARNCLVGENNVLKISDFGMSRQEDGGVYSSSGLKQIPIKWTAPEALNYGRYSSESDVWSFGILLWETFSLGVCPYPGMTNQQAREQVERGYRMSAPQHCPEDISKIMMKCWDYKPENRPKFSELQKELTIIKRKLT
Chain of OSR1 (O95747 2-527): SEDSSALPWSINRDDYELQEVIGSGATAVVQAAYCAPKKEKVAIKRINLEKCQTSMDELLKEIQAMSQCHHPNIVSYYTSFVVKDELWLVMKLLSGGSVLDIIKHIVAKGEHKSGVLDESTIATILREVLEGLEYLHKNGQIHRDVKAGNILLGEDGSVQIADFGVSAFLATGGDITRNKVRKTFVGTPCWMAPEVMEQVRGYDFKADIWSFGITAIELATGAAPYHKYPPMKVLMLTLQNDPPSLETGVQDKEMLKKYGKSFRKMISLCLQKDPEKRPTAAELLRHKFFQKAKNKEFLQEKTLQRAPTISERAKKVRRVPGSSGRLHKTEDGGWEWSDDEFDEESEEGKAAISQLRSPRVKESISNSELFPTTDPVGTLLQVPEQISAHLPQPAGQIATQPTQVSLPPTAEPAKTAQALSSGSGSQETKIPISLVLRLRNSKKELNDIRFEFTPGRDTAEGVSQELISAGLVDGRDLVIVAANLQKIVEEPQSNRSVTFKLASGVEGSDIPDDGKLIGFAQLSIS

## Cc1cc(Nc2ncc(Cl)c(Nc3ccccc3S(=O)(=O)C(C)C)n2)c(OC(C)C)cc1C1CCNCC1 [ceritinib]
OSR1
  IC50: 881 nM
RSK1
  IC50: 966 nM
CAMKK2
  IC50: 75.3 nM
FER
  IC50: 11.7 nM
RSK2
  IC50: 418 nM
AMPK
  IC50: 2360 nM
